# Results taken from article PMC3058180 (Journal of pharmaceutical sciences, 2010).
# Experiments:
# [1] = system: A/turkey/MN/833/80 (H4N2); test: microbe, parasite or virus in culture; assay type: cell-based; details: Influenza A virus, H4N2, MDCK, read-out: IC50 (nM of Zanamivir)
# A/Wuhan/359/95 (H3N2) = test: microbe, parasite or virus in culture; assay type: cell-based; details: Influenza A virus, H3N2, MDCK, read-out: IC50 (nM of Zanamivir)
structure (smiles),measurement,setting,value
"CC(=O)N[C@H]1[C@H]([C@H](O)[C@H](O)CO)OC(C(=O)O)=C[C@@H]1N=C(N)N [compound 1, Zanamivir]",IC50,[1],21000 nM
same,IC50,A/Wuhan/359/95 (H3N2),23000 nM
